Measured values from patent US8563588B2, “Imidazolone derivatives, method for the preparation thereof and biological applications” (Universite de Rennes 1, priority 2007, dated 2013).

target: Rat recombinant DYRK1A (Rattus norvegicus, UniProt Q63470); test: Assaying of the kinase activity of DYRK1A (33P-ATP, myelin basic protein, P81 filter); type: biochemical; details: 15 μM ATP, 30° C., 30 min; read-out: IC50 DYRK1A;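 also: GST fusion rat DYRK1A made in E. coli, scintillation counting of label bound to substrate, activity as percent of the inhibitor-free maximum after blank subtraction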

| IC50 | Compound |
| --- | --- |
| 0.86 µM | CN1C(=O)/C(=C/c2ccc3c(c2)OCO3)N=C1Nc1ccc(CC(=O)O)cc1 [MADE34] |
| 0.23 µM | CN1C(=O)/C(=C/c2ccc3c(c2)OCO3)N=C1Nc1cccc(CO)c1 [MADE37] |
| > 10 µM | CCSC1=N/C(=C\c2ccc(OC)c(OC)c2)C(=O)N1C [SB55] |
| 2.3 µM | CCCCSC1=N/C(=C\c2ccc3c(c2)OCO3)C(=O)N1C [ST101] |
| 5.7 µM | CN1C(=O)/C(=C/c2ccc3c(c2)OCO3)N=C1SCc1ccccc1 [SB28] |
| 0.17 µM | COc1cc(/C=C2\N=C(N)NC2=O)ccc1O [ST325] |
| 0.73 µM | CN1C(=O)/C(=C/c2ccc3c(c2)OCO3)N=C1NCCO [MADE40] |
| > 10 µM | CN1C(=O)/C(=C/c2ccc3c(c2)OCO3)NC1=S [ST223] |
| > 10 µM | CN1C(=O)/C(=C/c2cc(Br)c3c(c2)OCO3)NC1=S [ST341] |
| 2.6 µM | CCSC1=N/C(=C\c2ccc(O)c(OC)c2)C(=O)N1 [ST240] |
| > 10 µM | CCCCN1C(=O)/C(=C/c2ccc3c(c2)OCO3)N=C1SCc1ccccc1 [SB10] |
| > 10 µM | CC(C)CNC1=N/C(=C\c2ccc3c(c2)OCO3)C(=O)N1C [FCFD24] |
| > 10 µM | COC(=O)NCCNC1=N/C(=C\c2ccc3c(c2)OCO3)C(=O)N1C [MADE24] |
| 1.5 µM | CN1C(=O)/C(=C/c2ccc3c(c2)OCO3)N=C1SCC1CC1 [ST102] |
| > 10 µM | CCCNC1=N/C(=C\c2cc(OC)c(OC)c(OC)c2)C(=O)N1C [FCFD14] |
| > 10 µM | CCCCNC1=N/C(=C\c2ccc3c(c2)OCO3)C(=O)N1CCCC [FCJR464] |

Second part, the compound before the results:

| Compound | IC50 |
| --- | --- |
| COCCSC1=N/C(=C\c2ccc3c(c2)OCO3)C(=O)N1C [SA197] | 2.5 µM |
| CN1C(=O)/C(=C/c2ccc3c(c2)OCO3)N=C1NCc1ccccc1 [FC097] | 1.4 µM |
| CN1C(=O)/C(=C/c2ccc3c(c2)OCO3)N=C1NCc1ccc2c(c1)OCO2 [MADE12] | 4.6 µM |
| O=C1/C(=C/c2ccc3c(c2)OCO3)NC(=S)N1c1ccccc1 [JR370] | > 10 µM |
| CCNC1=N/C(=C\c2ccc3c(c2)OCO3)C(=O)N1 [FC090, (5Z)-5-Benzo[1,3]dioxol-5-ylmethylene-2-ethylamino-3,5-dihydro-4H-imidazol-4-one] | 1.1 µM |
| COc1cc(/C=C2\N=C(SC)N(C)C2=O)cc(OC)c1OC [JR161] | > 10 µM |
| COc1cc(/C=C2\N=C(NC(C)C)N(C)C2=O)cc(OC)c1OC [FC104b] | > 10 µM |
| O=C1NC(Nc2ccc(O)cc2)=N/C1=C\c1ccc2c(c1)OCO2 [MADE48] | 0.084 µM |
| CN1C(=O)C(=Cc2c[nH]c3ccccc23)NC1=S [ST197] | > 10 µM |
| CCCSC1=N/C(=C\c2c[nH]c3ccccc23)C(=O)N1C [FB14] | > 10 µM |
| CN1C(=O)/C(=C/c2ccc3c(c2)OCO3)N=C1c1ccccc1 [NL39, (5Z)-5-(1,3-Benzodioxol-5-ylmethylene)-3-methyl-2-phenyl-3,5-dihydro-4H-imidazol-4-one] | 3.2 µM |
| CSC1=N/C(=C\c2ccc3c(c2)OCO3)C(=O)N1 [ST105] | 0.68 µM |
| O=C1NC(NCC2CC2)=N/C1=C\c1ccc2c(c1)OCO2 [FC114] | 0.5 µM |
| CN1C(=O)/C(=C/c2ccc3c(c2)OCO3)N=C1Nc1ccc2c(c1)OCO2 [MADE30] | 0.37 µM |
| CSC1=N/C(=C\c2ccccc2O)C(=O)N1C [JR159] | > 10 µM |
| CCCCN1C(=O)/C(=C/c2ccc3c(c2)OCO3)NC1=S [JR361] | > 10 µM |
| CSC1=N/C(=C\c2ccc(Br)cc2)C(=O)N1C [JR162] | > 10 µM |
| CN1C(=O)/C(=C/c2ccc3c(c2)OCO3)N=C1c1ccc(O)cc1 [NL96] | 0.43 µM |
| CN1C(=O)/C(=C/c2ccc3c(c2)OCO3)N=C1Nc1ccccc1 [MADE42] | 0.43 µM |
| CCSC1=N/C(=C\c2ccc3c(c2)OCO3)C(=O)N1 [ST120] | 0.44 µM |
| CCCCN1C(=O)/C(=C/c2ccc3c(c2)OCO3)N=C1SC [JR448] | > 10 µM |

same assay, conditions: IC50 DYRK1A

| Compound | IC50 |
| --- | --- |
| CNC1=N/C(=C\c2ccc3c(c2)OCO3)C(=O)N1C [FC084] | 2.7 µM |

same assay, conditions: IC50 DYRK1A, 15 μM ATP, 30° C., 30 min

| Compound | IC50 |
| --- | --- |
| CC(C)NC1=N/C(=C\c2ccc3c(c2)OCO3)C(=O)N1C [FCJR232] | 1.3 µM |
